Where only a bound is given, the exact number is not on record here.

This assay concerns the target PD-1/PD-L1 (Homo sapiens, UniProt Q9NZQ7). Description: TR-FRET PD-1/PD-L1 binding inhibition at the molecular level (free proteins). To be noted: Tag1-PD-L1 and Tag2-PD-1 proteins, twelve concentrations from 200 nM, 2 hours at room temperature, read-out: FRET assay (IC50). The method, boiled down: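 HTRF read-out at 665/620 nm after 2 h at room temperature. Detection used anti-Tag1 Eu cryptate plus anti-Tag2 XL665 antibodies. Tagged PD-L1 and PD-1 proteins were pre-mixed with compound across twelve […] 1:2 dilutions starting at 200 nM.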
For orientation: Time-resolved FRET reads energy transfer from a long-lived donor to a nearby acceptor.

PD-1/PD-L1, sequence (Q9NZQ7 19-238 limits assumed): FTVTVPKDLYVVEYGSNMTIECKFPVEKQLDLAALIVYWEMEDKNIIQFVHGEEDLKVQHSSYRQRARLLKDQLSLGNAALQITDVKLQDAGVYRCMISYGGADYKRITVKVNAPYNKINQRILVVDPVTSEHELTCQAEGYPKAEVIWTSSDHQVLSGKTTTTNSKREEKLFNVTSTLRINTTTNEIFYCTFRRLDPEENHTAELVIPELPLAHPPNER

`O=C(Nc1cccc(-c2cccc(Nc3nc(C(F)(F)F)nc4cccnc34)c2Cl)c1Cl)c1cc2n(n1)CCC[C@@H]2N1CC[C@@H](O)C1` [Compound 333, (S)-N-(2,2'-dichloro-3'-((2-(trifluoromethyl)pyrido[3,2-d]pyrimidin-4-yl)amino)-[1,1'-biphenyl]-3-yl)-4-((R)-3-hydroxypyrrolidin-1-yl)-4,5,6,7-tetrahydropyrazolo[1,5-a]pyridine-2-carboxamide]: the IC50 fell in the range of 10 to 100 nM. In the case of `O=C(Nc1cccc(-c2cccc(Nc3nc(C(F)(F)F)nc4cccnc34)c2Cl)c1Cl)c1cc2n(n1)CCC[C@H]2N1CC[C@@H](O)C1` [Compound 334, (R)-N-(2,2'-dichloro-3'-((2-(trifluoromethyl)pyrido[3,2-d]pyrimidin-4-yl)amino)-[1,1'-biphenyl]-3-yl)-4-((R)-3-hydroxypyrrolidin-1-yl)-4,5,6,7-tetrahydropyrazolo[1,5-a]pyridine-2-carboxamide], the IC50 lay in the range of 10 to 100 nM.

`COc1cc(/C(F)=C/c2cccc(-c3cccc(NC(=O)c4cc5n(n4)CCC[C@@H]5N4CC[C@@H](O)C4)c3Cl)c2Cl)ncc1CN1CC[C@@H](O)C1` [Compound 335, (S)-N-(2,2'-dichloro-3'-((Z)-2-fluoro-2-(5-(((R)-3-hydroxypyrrolidin-1-yl)methyl)-4-methoxypyridin-2-yl)vinyl)-[1,1'-biphenyl]-3-yl)-4-((R)-3-hydroxypyrrolidin-1-yl)-4,5,6,7-tetrahydropyrazolo[1,5-a]pyridine-2-carboxamide]: the 50% inhibitory concentration (IC50) fell in the range of 10 to 100 nM. Consider `O=C(Nc1cccc(-c2cccc(Nc3nc(C(F)(F)F)nc4cc(CN5CC[C@@H](O)C5)cnc34)c2Cl)c1Cl)c1cc2n(n1)CCC[C@@H]2N1CCC(C(=O)O)CC1` [Compound 336, 1-((S)-2-((2,2'-dichloro-3'-((7-(((R)-3-hydroxypyrrolidin-1-yl)methyl)-2-(trifluoromethyl)pyrido[3,2-d]pyrimidin-4-yl)amino)-[1,1'-biphenyl]-3-yl)carbamoyl)-4,5,6,7-tetrahydropyrazolo[1,5-a]pyridin-4-yl)piperidine-4-carboxylic acid], for which the half-maximal inhibitory concentration (IC50) was in the range of 10 to 100 nM. Consider `O=C(Nc1cccc(-c2cccc(Nc3nc(C(F)(F)F)nc4cc(CN5CC[C@@H](O)C5)cnc34)c2Cl)c1Cl)c1cc2n(n1)CCC[C@H]2N1CCC(C(=O)O)CC1` [Compound 337], for which the concentration for half-maximal inhibition (IC50) was 10 to 100 nM. The same measure for `O=C(Nc1cccc(-c2cccc(Nc3nc(C(F)(F)F)nc4cc(CN5CC[C@@H](O)C5)cnc34)c2Cl)c1Cl)c1cc2n(n1)CCC[C@@H]2N1CC[C@@H](O)C1` [Compound 338, (S)-N-(2,2'-dichloro-3'-((7-(((R)-3-hydroxypyrrolidin-1-yl)methyl)-2-(trifluoromethyl)pyrido[3,2-d]pyrimidin-4-yl)amino)-[1,1'-biphenyl]-3-yl)-4-((R)-3-hydroxypyrrolidin-1-yl)-4,5,6,7-tetrahydropyrazolo[1,5-a]pyridine-2-carboxamide]: 10 to 100 nM; for `O=C(Nc1cccc(-c2cccc(Nc3nc(C(F)(F)F)nc4cc(CN5CC[C@@H](O)C5)cnc34)c2Cl)c1Cl)c1cc2n(n1)CCC[C@H]2N1CC[C@@H](O)C1` [Compound 339, (R)-N-(2,2'-dichloro-3'-((7-(((R)-3-hydroxypyrrolidin-1-yl)methyl)-2-(trifluoromethyl)pyrido[3,2-d]pyrimidin-4-yl)amino)-[1,1'-biphenyl]-3-yl)-4-((R)-3-hydroxypyrrolidin-1-yl)-4,5,6,7-tetrahydropyrazolo[1,5-a]pyridine-2-carboxamide]: 10 to 100 nM; for `CC(C)(N[C@H]1CCCn2nc(C(=O)Nc3cccc(-c4cccc(Nc5nc(C(F)(F)F)nc6cc(CN7CC[C@@H](O)C7)cnc56)c4Cl)c3Cl)cc21)C(=O)O` [Compound 340, 2-(((S)-2-((2,2'-dichloro-3'-((7-(((R)-3-hydroxypyrrolidin-1-yl)methyl)-2-(trifluoromethyl)pyrido[3,2-d]pyrimidin-4-yl)amino)-[1,1'-biphenyl]-3-yl)carbamoyl)-4,5,6,7-tetrahydropyrazolo[1,5-a]pyridin-4-yl)amino)-2-methylpropanoic acid]: 10 to 100 nM.

On to `CC(C)(N[C@@H]1CCCn2nc(C(=O)Nc3cccc(-c4cccc(Nc5nc(C(F)(F)F)nc6cc(CN7CC[C@@H](O)C7)cnc56)c4Cl)c3Cl)cc21)C(=O)O` [Compound 341, 2-(((R)-2-((2,2'-dichloro-3'-((7-(((R)-3-hydroxypyrrolidin-1-yl)methyl)-2-(trifluoromethyl)pyrido[3,2-d]pyrimidin-4-yl)amino)-[1,1'-biphenyl]-3-yl)carbamoyl)-4,5,6,7-tetrahydropyrazolo[1,5-a]pyridin-4-yl)amino)-2-methylpropanoic acid], for which the IC50 was in the range of 10 to 100 nM. With `Cc1c(NC(=O)c2cc3n(n2)CCC[C@@H]3N2CCC(C(=O)O)CC2)cccc1-c1cccc(Nc2nc(C(F)(F)F)nc3cc(CN4CC[C@@H](O)C4)cnc23)c1C` [Compound 342, 1-((S)-2-((3'-((7-(((R)-3-hydroxypyrrolidin-1-yl)methyl)-2-(trifluoromethyl)pyrido[3,2-d]pyrimidin-4-yl)amino)-2,2'-dimethyl-[1,1'-biphenyl]-3-yl)carbamoyl)-4,5,6,7-tetrahydropyrazolo[1,5-a]pyridin-4-yl)piperidine-4-carboxylic acid], the IC50 lay within 10 to 100 nM. With `Cc1c(NC(=O)c2cc3n(n2)CCC[C@@H]3N2CC[C@@H](O)C2)cccc1-c1cccc(Nc2nc(C(F)(F)F)nc3cc(CN4CC[C@@H](O)C4)cnc23)c1C` [Compound 344], the IC50 was in the range of 10 to 100 nM. The result for `Cc1c(NC(=O)c2cc3n(n2)CCC[C@H]3N2CC[C@@H](O)C2)cccc1-c1cccc(Nc2nc(C(F)(F)F)nc3cc(CN4CC[C@@H](O)C4)cnc23)c1C` [Compound 345] reads 10 to 100 nM; that for `CN[C@H]1CCCn2nc(C(=O)Nc3cccc(-c4cccc(Nc5nccc6cc(CN7CC[C@@H](O)C7)cnc56)c4C)c3C)cc21` [Compound 346, (S)-N-(3'-((3-(((R)-3-hydroxypyrrolidin-1-yl)methyl)-1,7-naphthyridin-8-yl)amino)-2,2'-dimethyl-[1,1'-biphenyl]-3-yl)-4-(methylamino)-4,5,6,7-tetrahydropyrazolo[1,5-a]pyridine-2-carboxamide], less than 10 nM. The same measure for `CN[C@@H]1CCCn2nc(C(=O)Nc3cccc(-c4cccc(Nc5nccc6cc(CN7CC[C@@H](O)C7)cnc56)c4C)c3C)cc21` [Compound 347, (R)-N-(3'-((3-(((R)-3-hydroxypyrrolidin-1-yl)methyl)-1,7-naphthyridin-8-yl)amino)-2,2'-dimethyl-[1,1'-biphenyl]-3-yl)-4-(methylamino)-4,5,6,7-tetrahydropyrazolo[1,5-a]pyridine-2-carboxamide]: less than 10 nM; for `CN[C@H]1CCCn2nc(C(=O)Nc3cccc(-c4cccc(NC(=O)c5ccc(CN6CC[C@@H](O)C6)cn5)c4C)c3C)cc21` [Compound 348, (S)-N-(3'-(5-(((R)-3-hydroxypyrrolidin-1-yl)methyl)picolinamido)-2,2'-dimethyl-[1,1'-biphenyl]-3-yl)-4-(methylamino)-4,5,6,7-tetrahydropyrazolo[1,5-a]pyridine-2-carboxamide]: less than 10 nM; for `CN[C@@H]1CCCn2nc(C(=O)Nc3cccc(-c4cccc(NC(=O)c5ccc(CN6CC[C@@H](O)C6)cn5)c4C)c3C)cc21` [Compound 349, (R)-N-(3'-(5-(((R)-3-hydroxypyrrolidin-1-yl)methyl)picolinamido)-2,2'-dimethyl-[1,1'-biphenyl]-3-yl)-4-(methylamino)-4,5,6,7-tetrahydropyrazolo[1,5-a]pyridine-2-carboxamide]: 10 to 100 nM. Regarding `CN[C@H]1CCCn2nc(C(=O)Nc3cccc(-c4cccc(NC(=O)c5ccc(CN6CC[C@@H](O)C6)cn5)c4Cl)c3Cl)cc21` [Compound 350, (S)-N-(2,2'-dichloro-3'-(5-(((R)-3-hydroxypyrrolidin-1-yl)methyl)picolinamido)-[1,1'-biphenyl]-3-yl)-4-(methylamino)-4,5,6,7-tetrahydropyrazolo[1,5-a]pyridine-2-carboxamide], the 50% inhibitory concentration (IC50) lay in the range of 10 to 100 nM. Consider `CN[C@@H]1CCCn2nc(C(=O)Nc3cccc(-c4cccc(NC(=O)c5ccc(CN6CC[C@@H](O)C6)cn5)c4Cl)c3Cl)cc21` [Compound 351, (R)-N-(2,2'-dichloro-3'-(5-(((R)-3-hydroxypyrrolidin-1-yl)methyl)picolinamido)-[1,1'-biphenyl]-3-yl)-4-(methylamino)-4,5,6,7-tetrahydropyrazolo[1,5-a]pyridine-2-carboxamide], for which the IC50 fell in the range of 10 to 100 nM. With `CN[C@H]1CCCn2nc(C(=O)Nc3cccc(-c4cccc(Nc5nc(C(F)(F)F)nc6cc(CN7CC[C@@H](O)C7)cnc56)c4Cl)c3Cl)cc21` [Compound 352, (S)-N-(2,2'-dichloro-3'-((7-(((R)-3-hydroxypyrrolidin-1-yl)methyl)-2-(trifluoromethyl)pyrido[3,2-d]pyrimidin-4-yl)amino)-[1,1'-biphenyl]-3-yl)-4-(methylamino)-4,5,6,7-tetrahydropyrazolo[1,5-a]pyridine-2-carboxamide], the IC50 was in the range of 10 to 100 nM. Turning to `CN[C@@H]1CCCn2nc(C(=O)Nc3cccc(-c4cccc(Nc5nc(C(F)(F)F)nc6cc(CN7CC[C@@H](O)C7)cnc56)c4Cl)c3Cl)cc21` [Compound 353, (R)-N-(2,2'-dichloro-3'-((7-(((R)-3-hydroxypyrrolidin-1-yl)methyl)-2-(trifluoromethyl)pyrido[3,2-d]pyrimidin-4-yl)amino)-[1,1'-biphenyl]-3-yl)-4-(methylamino)-4,5,6,7-tetrahydropyrazolo[1,5-a]pyridine-2-carboxamide], the IC50 lay within 10 to 100 nM. Consider `CN[C@H]1CCCn2nc(C(=O)Nc3cccc(-c4cccc(Nc5nc(C(F)F)nc6cc(CN7CC[C@@H](O)C7)cnc56)c4Cl)c3Cl)cc21` [Compound 354, (S)-N-(2,2'-dichloro-3'-((2-(difluoromethyl)-7-(((R)-3-hydroxypyrrolidin-1-yl)methyl)pyrido[3,2-d]pyrimidin-4-yl)amino)-[1,1'-biphenyl]-3-yl)-4-(methylamino)-4,5,6,7-tetrahydropyrazolo[1,5-a]pyridine-2-carboxamide], for which the 50% inhibitory concentration (IC50) is 10 to 100 nM.

What is called IC50 is the concentration needed to halve the response being measured.

For the origin of these results see patent EP4755888A1 (ILAb Co., Ltd., priority 2023, dated 2025).
